According to ChEMBL document CHEMBL2429792, “2D QSAR of heteroaryl-substituted propanolamines as antihypertensive agents” (2013):

Species: Rattus norvegicus
Experiment: Antihypertensive activity in rat assessed as inhibition of isoproterenol-induced tachycardia
Type: functional

| Compound | log1/activity |
| --- | --- |
| N#Cc1ccccc1OCC(O)CNCCNC(=O)Cc1c[nH]c2ccccc12 (stereo unspecified) | 6.44 |
| CNC(=O)Nc1ccc(C(=O)NCCNCC(O)COc2cccc3c2OCCO3)cc1 (stereo unspecified) | 7.34 |
| O=C(NCCNCC(O)COc1ccccc1)c1ccncc1 (stereo unspecified) | 5.79 |
| O=C(NCCNCC(O)COc1cccc2ccccc12)c1ccco1 (stereo unspecified) | 4.73 |
| N#Cc1ccccc1OCC(O)CNCCNC(=O)c1ccco1 (stereo unspecified) | 4.73 |
| Cc1ccccc1OCC(O)CNCCNC(=O)c1ccco1 (stereo unspecified) | 5.38 |
| COc1ccc2c(O)cc(CC(=O)NCCNCC(O)COc3ccccc3C#N)nc2c1 (stereo unspecified) | 6.65 |
| CC(C)C(=O)NCCNCC(O)COc1cccc2[nH]ccc12 (stereo unspecified) | 7.2 |
| N#Cc1ccccc1OCC(O)CNCCNC(=O)Cc1cccs1 (stereo unspecified) | 6.95 |
| CC(C)C(=O)NCCNCC(O)COc1cccc2sccc12 (stereo unspecified) | 5.82 |
| O=C(NCCNCC(O)COc1cccc2c1OCCO2)c1ccc(O)cc1 (stereo unspecified) | 6.41 |
| O=C(Cc1ccccc1)NCCNCC(O)COc1cccc2c1OCCO2 (stereo unspecified) | 5.41 |
| Cc1cc(C(=O)NCCNCC(O)COc2ccccc2C#N)[nH]n1 (stereo unspecified) | 4.78 |
| O=C(NCCNCC(O)COc1cccc2occc12)Nc1ccccc1 (stereo unspecified) | 5.56 |
| CC(=O)c1ccc(C(=O)NCCNCC(O)COc2cccc3c2OCCO3)cc1 (stereo unspecified) | 6.31 |
| O=C(NCCNCC(O)COc1ccccc1)c1cc2ccccc2[nH]1 (stereo unspecified) | 4.54 |
| N#Cc1ccccc1OCC(O)CNCCNC(=O)c1ccc2ccccc2n1 (stereo unspecified) | 4.59 |
| N#Cc1ccccc1OCC(O)CNCCNC(=O)Cc1csc(-c2ccc(Cl)cc2)n1 (stereo unspecified) | 4.89 |

| Compound | log1/activity |
| --- | --- |
| O=C(NCCNCC(O)COc1cccc2c1OCCO2)Nc1ccccc1 (stereo unspecified) | 4.58 |
| O=C(NCCNCC(O)COc1ccccc1)c1ccco1 (stereo unspecified) | 5.48 |
| COc1cc(CC(=O)NCCNCC(O)COc2ccccc2C#N)nc(-c2ccc(Cl)cc2)n1 (stereo unspecified) | 4.69 |
| CC(C)C(=O)NCCNCC(O)COc1nccs1 (stereo unspecified) | 5.91 |
| N#Cc1ccccc1OCC(O)CNCCNC(=O)c1cc2ccccc2[nH]1 (stereo unspecified) | 4.57 |
| Nc1ccc(C(=O)NCCNCC(O)COc2cccc3c2OCCO3)cc1 (stereo unspecified) | 5.5 |
| C=CCOc1ccccc1OCC(O)CNCCNC(=O)c1ccco1 (stereo unspecified) | 5.07 |
| O=C(NCCNCC(O)COc1cccc2sccc12)Nc1ccccc1 (stereo unspecified) | 4.88 |
| O=C(NCCNCC(O)COc1cccc2c1OCCC2=O)Nc1ccccc1 (stereo unspecified) | 4.83 |
| O=C(NCCNCC(O)COc1ccccc1I)c1ccco1 (stereo unspecified) | 5.27 |
| CC(C)C(=O)NCCNCC(O)COc1cccc2nsnc12 (stereo unspecified) | 4.52 |
| O=C(NCCNCC(O)COc1ccccc1O)C1CCCO1 (stereo unspecified) | 5.16 |
| CC(C)C(=O)NCCNCC(O)COc1nsnc1N1CCOCC1 (stereo unspecified) | 6.34 |
| NC(=O)c1ccccc1OCC(O)CNCCNC(=O)c1cccs1 (stereo unspecified) | 4.78 |
| O=C(NCCNCC(O)COc1ccccc1)c1cccs1 (stereo unspecified) | 5.92 |
| Cc1cccc(OCC(O)CNCCNC(=O)c2ccco2)c1 (stereo unspecified) | 4.9 |
| CC(=O)Nc1ccc(OCC(O)CNC(C)C)cc1 (stereo unspecified) [PRACTOLOL] | 5.72 |
| CC(C)NCC(O)COc1cccc2ccccc12 (stereo unspecified) [PROPRANOLOL] | 6.11 |
